Experimental data taken from ChEMBL document CHEMBL1201862, “PubChem BioAssay data set” (2004).
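Results reflect a 48-hour exposure of cells in 96-well plates to compound at five concentrations. GI50 marks 50% less growth.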 The source made the active and inactive calls. No stated cut-off is given here; in the data, active = GI50 up to about 1.1 µM and inactive = higher.

Legend:
Assay in all cases: DTP human tumour cell line panel, 48 h
786-0 = system: 786-0
ACHN = system: ACHN
COLO 205 = system: COLO 205
HCT-116 = system: HCT-116
HCT-15 = system: HCT-15
HOP-62 = system: HOP-62
LOX IMVI = system: LOX IMVI
MCF7 = system: MCF7
NCI-H522 = system: NCI-H522
OVCAR-5 = system: OVCAR-5
OVCAR-8 = system: OVCAR-8
SF-268 = system: SF-268
SF-295 = system: SF-295
SF-539 = system: SF-539
SNB-75 = system: SNB-75
SR = system: SR
TK-10 = system: TK-10
U-251 = system: U-251
A498 = system: A498
CCRF-CEM = system: CCRF-CEM

Structure (SMILES) | GI50 (786-0) | GI50 (ACHN) | GI50 (COLO 205) | GI50 (HCT-116) | GI50 (HCT-15) [µM] | GI50 (HOP-62) | GI50 (LOX IMVI) | GI50 (MCF7) | GI50 (NCI-H522) | GI50 (OVCAR-5) | GI50 (OVCAR-8) | GI50 (SF-268) | GI50 (SF-295) | GI50 (SF-539) | GI50 (SNB-75) | GI50 (SR) | GI50 (TK-10) | GI50 (U-251) | GI50 (A498) | GI50 (CCRF-CEM)
CC(=O)OCC1OC(n2c(-c3ccc(Cl)cc3)cc(-c3ccccc3)c(C#N)c2=S)C(OC(C)=O)C(OC(C)=O)C1OC(C)=O (stereo not drawn) | 12.2 µM (inactive) | 13.5 µM (inactive) | 13.2 µM (inactive) | 6.11 µM (inactive) | 29.9 | 7.85 µM (inactive) | 4.29 µM (inactive) | 17.3 µM (inactive) | 18.1 µM (inactive) | 19.6 µM (inactive) | 10 µM (inactive) | 10.8 µM (inactive) | 11.5 µM (inactive) | 3.99 µM (inactive) | 8.13 µM (inactive) | 10.7 µM (inactive) | 27.4 µM (inactive) | 8.67 µM (inactive) | – | –
CN(C)c1n/c(=N/c2ccc(/N=c3\nc(N(C)C)ss3)cc2)ss1 | 63.7 µM (inactive) | 36.9 µM (inactive) | 28.2 µM (inactive) | 15.1 µM (inactive) | 27 | > 100 µM (inactive) | > 44.8 µM (inactive) | – | 11.5 µM (inactive) | > 100 µM (inactive) | 16.7 µM (inactive) | 37.9 µM (inactive) | 39.8 µM (inactive) | 35.4 µM (inactive) | 13.5 µM (inactive) | 6.01 µM (inactive) | 24.2 µM (inactive) | 29.9 µM (inactive) | 33 µM (inactive) | 4.99 µM (inactive)
Cc1ccc([N+](=O)[O-])cc1NC(=O)C(=O)C(C(=O)c1ccccc1F)C1OC(=O)c2ccccc21 (stereo not drawn) | – | 62.2 µM (inactive) | 38.9 µM (inactive) | 31.5 µM (inactive) | 26.7 | 40.7 µM (inactive) | 27.5 µM (inactive) | – | 20.3 µM (inactive) | 61.4 µM (inactive) | 25.2 µM (inactive) | 25.5 µM (inactive) | 42.6 µM (inactive) | 24.5 µM (inactive) | 38.5 µM (inactive) | 30.3 µM (inactive) | > 100 µM (inactive) | 18.1 µM (inactive) | 98.4 µM (inactive) | 26.8 µM (inactive)
CCOC(=O)CSc1c(C(=O)OCC)c(=O)n(-c2ccccc2)c(=S)n1-c1ccccc1 | 85.5 µM (inactive) | 36 µM (inactive) | 65.8 µM (inactive) | 45.7 µM (inactive) | 21.5 | > 100 µM (inactive) | 15.6 µM (inactive) | 15.2 µM (inactive) | > 100 µM (inactive) | > 100 µM (inactive) | 41 µM (inactive) | > 100 µM (inactive) | 36.7 µM (inactive) | – | 54.6 µM (inactive) | 13.7 µM (inactive) | > 100 µM (inactive) | 13.3 µM (inactive) | – | 4.92 µM (inactive)
Cc1cn(Cc2cnnn2CC2OC(n3cc(C)c(=O)[nH]c3=O)CC2O)c(=O)[nH]c1=O (stereo not drawn) | – | > 100 µM (inactive) | > 100 µM (inactive) | > 100 µM (inactive) | > 100 | > 100 µM (inactive) | > 100 µM (inactive) | > 100 µM (inactive) | – | > 100 µM (inactive) | > 100 µM (inactive) | > 100 µM (inactive) | > 100 µM (inactive) | > 100 µM (inactive) | – | – | > 100 µM (inactive) | > 100 µM (inactive) | > 100 µM (inactive) | > 100 µM (inactive)
Cc1c2ccncc2cc2c1[nH]c1ccccc12 | – | – | 1.64 µM (inactive) | 2.44 µM (inactive) | 4.2 | 8.71 µM (inactive) | 2.33 µM (inactive) | 1.57 µM (inactive) | 3.92 µM (inactive) | 4.34 µM (inactive) | 3.44 µM (inactive) | 8.22 µM (inactive) | 5.02 µM (inactive) | 2.48 µM (inactive) | 5.26 µM (inactive) | – | – | 2.86 µM (inactive) | 0.804 µM (active) | 3.78 µM (inactive)
COC1/C=C/C(C)C(C(C)C(OC)C(C)CCC(=O)C(C)C(C/C=C/N(C)C=O)OC)OC(=O)/C=C/C=C(\C)CC(OC)CC2=CC(=O)O[C@H](C2)C(C)C(OC)CC(OC)/C=C/C(C)C(OC)C1 (stereo partly drawn) | – | – | – | < 0.005 µM (active) | < 0.005 | < 0.005 µM (active) | < 0.005 µM (active) | 0.0292 µM (active) | 0.00588 µM (active) | – | 0.0224 µM (active) | 0.0336 µM (active) | 0.00619 µM (active) | – | < 0.005 µM (active) | < 0.005 µM (active) | – | – | – | < 0.005 µM (active)
OCC1OC(n2ccc3cnccc32)CC1O (stereo not drawn) | > 100 µM (inactive) | > 100 µM (inactive) | > 100 µM (inactive) | > 100 µM (inactive) | > 100 | > 100 µM (inactive) | > 100 µM (inactive) | – | > 100 µM (inactive) | > 100 µM (inactive) | > 100 µM (inactive) | – | > 100 µM (inactive) | > 100 µM (inactive) | > 100 µM (inactive) | > 100 µM (inactive) | > 100 µM (inactive) | > 100 µM (inactive) | > 100 µM (inactive) | > 100 µM (inactive)
N#CC1(CCCI)CCCC1 | – | 21.4 µM (inactive) | 27.8 µM (inactive) | 4.18 µM (inactive) | 14.5 | – | 3.76 µM (inactive) | – | 3.24 µM (inactive) | 25.1 µM (inactive) | 51.1 µM (inactive) | 12.6 µM (inactive) | 29.4 µM (inactive) | 15.5 µM (inactive) | 1.53 µM (inactive) | 15.4 µM (inactive) | 41.9 µM (inactive) | 13.4 µM (inactive) | 35.9 µM (inactive) | 11.5 µM (inactive)
FC(F)(F)C(C1=NC(C(F)(F)F)(C(F)(F)F)N=C(N2CCOCC2)O1)C(F)(F)F | – | 17.4 µM (inactive) | 14.3 µM (inactive) | 27.7 µM (inactive) | 26.1 | – | 17.8 µM (inactive) | > 10 µM (inactive) | 20.2 µM (inactive) | 18.1 µM (inactive) | 15.3 µM (inactive) | 36.1 µM (inactive) | 16 µM (inactive) | 22.4 µM (inactive) | 29.5 µM (inactive) | 18.8 µM (inactive) | 28.7 µM (inactive) | 19.9 µM (inactive) | – | 4.71 µM (inactive)
N#Cc1c(-c2ccccc2)cn(C(=O)c2ccccc2)c1N | > 100 µM (inactive) | > 100 µM (inactive) | > 100 µM (inactive) | > 100 µM (inactive) | > 100 | > 100 µM (inactive) | > 100 µM (inactive) | > 100 µM (inactive) | > 100 µM (inactive) | > 100 µM (inactive) | > 100 µM (inactive) | > 100 µM (inactive) | > 100 µM (inactive) | – | > 100 µM (inactive) | > 100 µM (inactive) | > 100 µM (inactive) | > 100 µM (inactive) | – | > 100 µM (inactive)
CCOC(=O)Nc1ccc(S(=O)(=O)NCCCl)cc1.CCOC(=O)Nc1ccc(S(=O)(=O)NCCCl)cc1.O=C(O)c1ccc(/N=N/Cl)cc1O | – | > 100 µM (inactive) | > 100 µM (inactive) | – | > 100 | > 100 µM (inactive) | – | – | > 100 µM (inactive) | > 100 µM (inactive) | > 100 µM (inactive) | > 100 µM (inactive) | > 100 µM (inactive) | > 100 µM (inactive) | > 100 µM (inactive) | > 100 µM (inactive) | > 100 µM (inactive) | > 100 µM (inactive) | > 100 µM (inactive) | > 100 µM (inactive)
COc1ccc(C2COc3cc(O)c(O)cc3C2)cc1 (stereo not drawn) | – | – | 10.6 µM (inactive) | 11.3 µM (inactive) | 10.2 | 76.4 µM (inactive) | 32.3 µM (inactive) | 37.2 µM (inactive) | 4.84 µM (inactive) | 148 µM (inactive) | 13.3 µM (inactive) | 14.8 µM (inactive) | 37.6 µM (inactive) | 30.1 µM (inactive) | 43.8 µM (inactive) | – | – | 13.7 µM (inactive) | 9.84 µM (inactive) | 2.86 µM (inactive)
Oc1c(OCc2nnc(CCCCCCCCc3nnc(COc4ccc5ccccc5c4O)n3Nc3ccccc3)n2Nc2ccccc2)ccc2ccccc12 | 13.3 µM (inactive) | 0.845 µM (active) | 0.558 µM (active) | 9.2 µM (inactive) | 11.4 | 0.261 µM (active) | – | 3.52 µM (inactive) | 7.08 µM (inactive) | 5.47 µM (inactive) | 11.2 µM (inactive) | 10.7 µM (inactive) | 0.301 µM (active) | 3.98 µM (inactive) | 17.5 µM (inactive) | – | 11.1 µM (inactive) | 12 µM (inactive) | 16.1 µM (inactive) | –
NC1CCCCC1.O=P(O)(O)C(CSc1ccccc1)P(=O)(O)O | – | – | > 100 µM (inactive) | > 100 µM (inactive) | > 100 | > 100 µM (inactive) | > 100 µM (inactive) | > 100 µM (inactive) | > 100 µM (inactive) | > 100 µM (inactive) | > 100 µM (inactive) | > 100 µM (inactive) | > 100 µM (inactive) | > 100 µM (inactive) | > 100 µM (inactive) | – | – | > 100 µM (inactive) | > 100 µM (inactive) | > 100 µM (inactive)
COC1OC(=O)[C@H]2O[N+]([O-])=C(C)[C@@H]12 (stereo partly drawn) | – | – | > 100 µM (inactive) | > 100 µM (inactive) | > 100 | > 100 µM (inactive) | > 100 µM (inactive) | > 100 µM (inactive) | > 100 µM (inactive) | > 100 µM (inactive) | > 100 µM (inactive) | > 100 µM (inactive) | > 100 µM (inactive) | > 100 µM (inactive) | > 100 µM (inactive) | – | – | > 100 µM (inactive) | > 100 µM (inactive) | > 100 µM (inactive)
